For orientation: Ki means a dissociation constant, usually derived from enzyme kinetics or from competition with a known ligand.

Five compounds from ChEMBL document CHEMBL1129833, “N-Phthalimidoalkyl derivatives of 2-carbomethoxy-3-(4-iodophenyl)tropane (-CIT): Brain monoamine transporter affinity” (Bioorg Med Chem Lett, 1997) can be followed below.

What all share (type): tissue-based
Assay [1] deals with Norepinephrine transporter (Rattus norvegicus, UniProt Q9WTR4). The assay is described as follows: In vitro binding affinity of compound for Norepinephrine (NE) transporter with [3H]- […] as radioligand in corpus striatum tissue from rat forebrain.
Sequence of Norepinephrine transporter (Q9WTR4 whole entry): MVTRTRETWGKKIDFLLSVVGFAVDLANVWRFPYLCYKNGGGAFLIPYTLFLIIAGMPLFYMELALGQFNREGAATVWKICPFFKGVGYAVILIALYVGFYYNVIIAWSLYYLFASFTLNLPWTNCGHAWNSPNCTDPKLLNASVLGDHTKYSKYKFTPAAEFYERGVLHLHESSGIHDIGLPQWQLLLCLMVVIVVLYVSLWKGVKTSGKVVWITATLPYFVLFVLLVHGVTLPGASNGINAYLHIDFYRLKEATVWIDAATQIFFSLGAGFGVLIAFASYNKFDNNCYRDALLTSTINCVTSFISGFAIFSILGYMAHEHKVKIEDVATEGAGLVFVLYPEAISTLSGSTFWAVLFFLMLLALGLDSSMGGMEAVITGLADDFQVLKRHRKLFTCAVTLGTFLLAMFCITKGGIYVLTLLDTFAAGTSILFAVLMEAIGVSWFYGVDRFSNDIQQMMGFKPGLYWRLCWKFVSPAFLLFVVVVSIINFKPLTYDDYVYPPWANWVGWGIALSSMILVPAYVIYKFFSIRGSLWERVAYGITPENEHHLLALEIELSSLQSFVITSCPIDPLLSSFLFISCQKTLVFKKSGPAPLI
Assay [2] has as its target Sodium-dependent dopamine transporter (Rattus norvegicus, UniProt P23977). The assay is described as follows: In vitro binding affinity of compound for Dopamine transporter with [3H]- GBR-12935 as radioligand in corpus striatum tissue from rat forebrain.
The target in assay [3] is Sodium-dependent serotonin transporter (Rattus norvegicus, UniProt P31652). The assay can be described thus: In vitro binding affinity of compound for Serotonin transporter with [3H]- paroxetine as radioligand in corpus striatum tissue from rat forebrain.
Sequence of Sodium-dependent serotonin transporter (P31652 whole entry): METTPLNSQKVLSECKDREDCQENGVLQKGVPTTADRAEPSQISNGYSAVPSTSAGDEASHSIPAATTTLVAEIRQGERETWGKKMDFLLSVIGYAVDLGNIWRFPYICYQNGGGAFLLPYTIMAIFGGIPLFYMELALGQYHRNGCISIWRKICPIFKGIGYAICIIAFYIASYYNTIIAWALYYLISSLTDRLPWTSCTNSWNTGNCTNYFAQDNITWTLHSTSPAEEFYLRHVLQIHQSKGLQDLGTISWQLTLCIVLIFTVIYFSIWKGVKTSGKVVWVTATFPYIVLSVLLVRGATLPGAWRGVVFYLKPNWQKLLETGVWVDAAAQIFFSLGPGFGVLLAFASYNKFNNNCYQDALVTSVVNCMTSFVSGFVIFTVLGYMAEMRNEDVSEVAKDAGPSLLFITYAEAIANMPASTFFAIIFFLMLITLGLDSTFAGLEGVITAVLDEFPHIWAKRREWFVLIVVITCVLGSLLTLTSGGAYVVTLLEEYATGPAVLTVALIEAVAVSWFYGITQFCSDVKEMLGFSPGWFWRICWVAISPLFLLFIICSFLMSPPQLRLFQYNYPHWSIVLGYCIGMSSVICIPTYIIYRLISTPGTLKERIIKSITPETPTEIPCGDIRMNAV

Sequence of Sodium-dependent dopamine transporter (P23977 whole entry): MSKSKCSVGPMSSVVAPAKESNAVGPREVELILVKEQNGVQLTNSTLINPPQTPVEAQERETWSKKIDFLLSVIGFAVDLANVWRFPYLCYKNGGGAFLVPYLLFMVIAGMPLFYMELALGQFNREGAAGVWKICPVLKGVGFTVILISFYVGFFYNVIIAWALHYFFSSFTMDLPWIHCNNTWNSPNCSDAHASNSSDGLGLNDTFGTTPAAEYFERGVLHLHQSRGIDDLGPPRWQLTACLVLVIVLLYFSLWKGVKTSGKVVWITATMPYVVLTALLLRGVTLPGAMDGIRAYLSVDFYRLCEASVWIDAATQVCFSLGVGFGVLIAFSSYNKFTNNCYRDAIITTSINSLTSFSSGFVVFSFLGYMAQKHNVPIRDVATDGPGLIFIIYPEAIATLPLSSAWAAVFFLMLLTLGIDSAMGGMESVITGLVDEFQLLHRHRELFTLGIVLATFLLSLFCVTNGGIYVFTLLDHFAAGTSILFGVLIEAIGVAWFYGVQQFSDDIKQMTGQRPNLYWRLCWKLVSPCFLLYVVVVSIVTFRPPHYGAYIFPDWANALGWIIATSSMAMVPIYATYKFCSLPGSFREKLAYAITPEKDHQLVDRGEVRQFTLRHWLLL

As for `COC(=O)C1C2CC[C@H](C[C@@H]1c1ccc(I)cc1)N2CCN1C(=O)c2ccccc2C1=O` (stereo partly drawn), the figures for the Ki in assay [1], in assay [2] and in assay [3] were 441 nM, 4.23 nM and 0.84 nM, respectively.

For the compound `COC(=O)C1C2CC[C@@H](C[C@@H]1c1ccc(I)cc1)N2CCCCN1C(=O)c2ccccc2C1=O` (stereo partly drawn), the Ki in assay [1] was determined as 190 nM; in assay [2], 2.38 nM; in assay [3] it was 0.21 nM.

Compound `COC(=O)C1C2CC[C@H](C[C@@H]1c1ccc(I)cc1)N2C` (stereo partly drawn) yielded a Ki in assay [3] of 0.44 nM.

Turning to `COC(=O)C1C2CC[C@H](C[C@@H]1c1ccc(I)cc1)N2CCCCCCCCN1C(=O)c2ccccc2C1=O` (stereo partly drawn), the Ki in assay [1] was 75 nM; in assay [2], 2.98 nM; in assay [3] it was 0.2 nM.

Regarding `COC(=O)C1C2CC[C@H](C[C@@H]1c1ccc(I)cc1)N2CCCCCN1C(=O)c2ccccc2C1=O` (stereo partly drawn), the Ki turned out to be 60 nM in assay [1], 2.4 nM in assay [2] and 0.34 nM in assay [3].
